Source: ChEMBL document CHEMBL1129382, “Synthesis of chiral 1-(2'-amino-2'-carboxyethyl)-1,4-dihydro-6,7-quinoxaline-2,3-diones: alpha-amino-3-hydroxy-5-methyl-4-isoxazolepropionate receptor agonists and antagonists” (J Med Chem, 1996)

Tests used:
[1] = biological target: Glutamate receptor ionotropic, AMPA (Rattus norvegicus) (UniProt P19491+P19492+P19493+P19490); assay: Displacement of [3H]- AMPA from Ionotropic glutamate receptor of rat brain; set-up: concentration or dose not given beside the values; settings: concentration not given here
[2] = biological target: Glutamate receptor ionotropic, kainate; assay: Inhibition of [3H]- Kainate binding to Ionotropic glutamate receptor kainate in brain homogenates.; assay type: tissue-based, Rattus norvegicus
[3] = biological target: Glutamate receptor ionotropic, kainate (Rattus norvegicus) (UniProt P22756+Q01812+P42260+P42264+Q63273); assay: Displacement of [3H]- Kainate from Ionotropic glutamate receptor kainate of rat brain homogenates.; assay type: tissue-based; set-up: concentration or dose not given beside the values; settings: concentration not given here
[4] = species on record: Rattus norvegicus; assay: Functional antagonist activity was determined by the ability to inhibit AMPA stimulated [3H]norepinephrine release from rat hippocampal slices.; settings: Hippocampus
[5] = biological target: Glutamate receptor ionotropic, AMPA (Rattus norvegicus, UniProt P19490+P19491+P19492+P19493); assay: Compound (100 uM) was evaluated for inhibition of Ionotropic glutamate receptor AMPA by using [3H]- AMPA; assay type: protein-complex assay

Compound	inhibition [1]	IC50 [2]	inhibition [3]	EC50 [4]	IC50 [5]
Cc1cc2[nH]c(=O)c(=O)n(C[C@H](N)C(=O)O)c2cc1C	66%	51 µM	38%	290 µM	
Nc1ccccc1NC[C@H](N)C(=O)O	70%		14%		
N[C@H](Cn1c(=O)c(=O)[nH]c2ccccc21)C(=O)O [listing 1 of 3 here]		0.69 µM			
N[C@H](Cn1c(=O)c(=O)[nH]c2ccccc21)C(=O)O [listing 2 of 3 here]		38 µM			
Nc1ccccc1NC[C@@H](N)C(=O)O	0%		0%		
Cc1cc2[nH]c(=O)c(=O)n(C(=O)[C@@H](CO)NC(=O)OC(C)(C)C)c2cc1C		11 µM			12 µM
Cc1cc2[nH]c(=O)c(=O)n(C(=O)[C@H](N)CO)c2cc1C	14%		15%		
Cc1cc2[nH]c(=O)c(=O)n(C(=O)[C@@H](N)CO)c2cc1C	24%		16%		
Cc1cc(N)c(NC[C@H](N)C(=O)O)cc1C	15%		7%		
Cc1cc2[nH]c(=O)c(=O)n(C[C@H](CO)NC(=O)OC(C)(C)C)c2cc1C		5 µM			47 µM
N[C@@H](Cn1c(=O)c(=O)[nH]c2ccccc21)C(=O)O	95%	0.23 µM	27%		
N[C@@H]1COC1=O	0%		4%		
Cc1cc2[nH]c(=O)n(C(=O)[C@@H](N)CO)c2cc1C	21%		13%		
N[C@H](Cn1c(=O)c(=O)[nH]c2ccccc21)C(=O)O [listing 3 of 3 here]	77%		5%		
Cc1cc2[nH]c(=O)c(=O)n(C[C@@H](N)C(=O)O)c2cc1C	62%	22 µM	27%	300 µM	
Cc1cc(N)c(NC[C@@H](N)C(=O)O)cc1C	15%		0%		
O=c1[nH]c2cc([N+](=O)[O-])c([N+](=O)[O-])cc2[nH]c1=O [DNQX]		0.74 µM			
O=[N+]([O-])c1cc2nc(O)c(O)nc2cc1[N+](=O)[O-]	99%		81%		
N[C@H]1COC1=O	11%		5%		
Cc1cc(N)c(NC(=O)[C@@H](CO)NC(=O)OC(C)(C)C)cc1C		11 µM			4 µM
